Assay results from patent US7842856B2, “Herbicide resistance gene, compositions and methods” (The Board of Trustees of the University of Illinois, priority 2005, dated 2010).

How the values were obtained:
[1] = tested on: A. tuberculatus F1(S) hybrid (maternal parent S); assay: Herbicide dose-response on whole plants, F1(S) line; format: in vivo, Amaranthus tuberculatus (waterhemp)
[2] = tested on: A. tuberculatus F1(R) hybrid (maternal parent R); assay: Herbicide dose-response on whole plants, F1(R) line; format: in vivo, Amaranthus tuberculatus (waterhemp); settings: for GR50 (growth reduction by 50%) F1(R): F1(R) line
[3] = tested on: A. tuberculatus PPO2L with glycine at position 210 expressed in E. coli SASX38; format: cell-based; settings: LB with lactofen (100 nM, FIG. 6), 37° C., 14 hrs

Row | SMILES | GR50 (growth reduction by 50%) F1(S) ([1]; 10 DAT) | GR50 (growth reduction by 50%) F1(R) ([2]; 10 DAT) | GR50 (growth reduction by 50%) F1(S) ([1]; 15 DAT) | growth of E. coli on lactofen-supplemented medium [3] | GR50 (growth reduction by 50%) F1(R) ([2]; 15 DAT) | fold higher doses survived compared with S plants ([2]; lines heterozygous for resistance vs S plants (FIG. 2; Table 2))
1 | O=C(O)c1cc(Oc2ccc(C(F)(F)F)cc2Cl)ccc1[N+](=O)[O-] [Acifluorfen, 5-{2-chloro-4-(trifluoromethyl)phenoxy}-2-nitrobezoic acid] | 4.1 g ai ha^−1 | 3.8 g ai ha^−1 |  |  |  | 
2 | CCOC(=O)C(C)OC(=O)c1cc(Oc2ccc(C(F)(F)F)cc2Cl)ccc1[N+](=O)[O-] (racemic) [Lactofen, (±)-2-ethoxy-1-methyl-2-oxoethyl 5-{2-chloro-4-(trifluoromethyl)phenoxy}-2-nitrobenzoate] | 1.6 g ai ha^−1 | 0.7 g ai ha^−1 | 13 g ai ha^−1 | dramatically inhibited growth | 12 g ai ha^−1 | 31 fold
